Reference: patent US11246929B2, “Combination of a protein kinase inhibitor and an additional chemotherapeutic agent” (Merck Patent GmbH, priority 2016, dated 2022)

What was measured:
HELA = assay: cells; conditions: Homo sapiens, read-out: GI50 of etoposide (±Compound 1)
Experimental: Cell growth and treatment were performed in 96-well microtitre plates CELLSTAR® (Greiner Bio-One, Germany). Cells harvested from exponential phase cultures by trypsinization or by splitting (in the case of cells growing in suspension) were plated in 90 μl of media at optimal seeding densities. The optimal seeding density for each cell line was determined to ensure exponential growth for the duration of the experiment. All cells growing without anticancer agents were sub-confluent by the end of the treatment, as determined by visual inspection.
90 μl of cells, after a 48-hour pre-growth period, were treated by mixing with 10 μl of the compound-containing media (resulting in a final DMSO concentration of 0.1%). The cells were allowed to grow at 37° C. for 72 (or 120) hours.
Cells were fixed to the surface by addition of 10% TCA (for adherent growing cells) or 50% TCA (for semi-adherent growing cell or cells growing in suspension). After an hour of incubation at 4° C. plates were washed twice with 200 μl of deionized water and dried. Cells were then stained with 100 μl of 0.04% w/v SRB. […]
Using these measurements, cellular responses can be calculated for incomplete inhibition of cell growth (GI), complete inhibition of cell growth (TGI) and net loss of cells (LC) due to compound activity. […] TGI was calculated from Ti=Tz. […] It was calculated as 100×[(Ti−Tz)/Tz]=−50.

lung cancer cell lines = assay: cells; conditions: read-out: Median etoposide concentration needed to reach GI50
Experimental: (§8) Single agent as well as combination treatment growth inhibition effects were measured by ONCOLEAD.
(§9) Relative area above the dose-response curve (relAOC or AOC) were obtained as the area above the dose-response curve in the dose range between 1E-3M and 1E-10M.

SF295 = assay: SRB growth inhibition, 93 cell lines panel; conditions: Homo sapiens, SF-295, read-out: GI50 of etoposide (±Compound 1)
Experimental: (§10) Cell growth and treatment were performed in 96-well microtitre plates CELLSTAR® (Greiner Bio-One, Germany). Cells harvested from exponential phase cultures by trypsinization or by splitting (in the case of cells growing in suspension) were plated in 90 μl of media at optimal seeding densities. The optimal seeding density for each cell line was determined to ensure exponential growth for the duration of the experiment. All cells growing without anticancer agents were sub-confluent by the end of the treatment, as determined by visual inspection. […] The cells were allowed to grow at 37° C. for 72 (or 120) hours. […] Cells were fixed to the surface by addition of 10% TCA (for adherent growing cells) or 50% TCA (for semi-adherent growing cell or cells growing in suspension). After an hour of incubation at 4° C. plates were washed twice with 200 μl of deionized water and dried. Cells were then stained with 100 μl of 0.04% w/v SRB. The plates were incubated at room temperature for at least 30 min and washed six times with 1% acetic acid to remove unbound stain. […] Using these measurements, cellular responses can be calculated for incomplete inhibition of cell growth (GI), complete inhibition of cell growth (TGI) and net loss of cells (LC) due to compound activity. […] TGI was calculated from Ti=Tz.

COLO678 = assay: Single agent activity, panel of 81 cancer cell lines plus PBMC; format: cell-based; conditions: Homo sapiens, COLO-678
SKNSH = assay: SRB growth inhibition, 93 cell lines panel; conditions: Homo sapiens, SK-N-SH, read-out: GI50 of etoposide (±Compound 1)
Experimental: as §10

SNB75 = assay: SRB growth inhibition, 93 cell lines panel; conditions: Homo sapiens, SNB-75, read-out: GI50 of etoposide (±Compound 1)
Experimental: as §10

JIMT1 = assay: Single agent activity, panel of 81 cancer cell lines plus PBMC; format: cell-based; conditions: Homo sapiens, JIMT-1
SF268 = assay: SRB growth inhibition, 93 cell lines panel; conditions: Homo sapiens, SF-268, read-out: GI50 of etoposide (±Compound 1)
Experimental: as §10

SKNAS = assay: SRB growth inhibition, 93 cell lines panel; conditions: Homo sapiens, SK-N-AS, read-out: GI50 of etoposide (±Compound 1)
Experimental: as §10

[1] = test system: mesothelioma (pleura) cell lines; assay: cells; conditions: read-out: Median etoposide concentration needed to reach GI50
Experimental: as §8, §9

[2] = test system: Capan-1 (pancreas, adeno) xenograft; assay: Xenograft, fractionated IR plus Compound 1, time to TV400%; format: in vivo, mouse
Experimental: (§1) The therapeutic relevance of DNA-PK inhibition by Compound 1 was investigated in vivo in combination with ionizing radiation (IR), a clinically established DSB-inducing treatment. Compound 1 was tested for activity in six xenograft mouse models of human cancer. The models were chosen from different cancer indications (colon, lung, head and neck, pancreatic), and histological subtypes (adeno, squamous, large cell). Ionizing radiation was administered using a fractionated schedule of 2 Gy per day administered over five consecutive days (total radiation dose=10 Gy). Compound 1 was given orally 10 min prior to each fraction of radiation (ONC397-1-2AZ, ONC397-1-3AZ, ONC397-1-4AZ, ONC397-1-5AZ, ONC397-1-8AZ).
(§2) Radiotherapy enhancing effect of Compound 1 was quantified across the tested models by the time to reaching 400% initial volume for the 150 mg/kg study arms. The resulting Kaplan-Meier plots were compared by the log-rank test.

[3] = test system: NCI-H460 (lung, large cell) xenograft; assay: as above; format: in vivo, mouse
Experimental: as §1, §2

[4] = test system: A549 (lung, adeno) xenograft; assay: as above; format: in vivo, mouse
Experimental: as §1, §2

[5] = test system: BxPC3 (pancreas, adeno) xenograft; assay: as above; format: in vivo, mouse
Experimental: as §1, §2

[6] = test system: HCT116 (colon, adeno) xenograft; assay: as above; format: in vivo, mouse
Experimental: as §1, §2

FaDu = assay: AlamarBlue viability assay; format: cell-based, human
Experimental: (§3) Compound 1 in combination with etoposide or cisplatin was tested in the following cancer cell lines for inhibition of tumor cells: human lung carcinoma (NCI-H460), human glioblastoma (MO59K and MO59J), and human squamous cell carcinoma pharynx (FaDu). Details of the assay protocol and material utilized are set forth below.
(§4) Cells were plated in a volume of 180 μl/well in 96-well plates: (FaDu: 1000 cells/well (168 h); NCI-H460 3000 cells/well (72 h) and 1000 cells/well (168 h); MO59J: 5000 cells/well (72 h) and 2000 cells/well (168 h); MO59K: 2000c/well (72 h) and 1000 cells/well (168 h)) and incubated at 37° C. and relevant C02 for 24 h hours. 20 μl per well of medium including serial dilutions of Compound 1 and/or Etoposide or Cisplatin were added to the culture plates and the incubation was continued further for 3 days (72 h) or 7 days (168 h) at 37° C. and relevant CO2. Compound 1 was pre-incubated for 30 min before Etoposide or Cisplatin were added.
(§5) Cells were plated in 200 μl volume per well (FaDu: 1000 cells/well (168 h); NCI-H460 3000 cells/well (72 h) and 1000 cells/well (168 h); MO59J: 5000 cells/well (72 h) and 2000 cells/well (168 h); MO59K: 2000c/well (72 h) and 1000 cells/well (168 h)). After 24 h incubation at 37° C. Compound 1, Etoposide or Cisplatin were dispensed by using the Digital HP Dispenser D300 (and the included dispensing software). Plates were further incubated for 3 days (72 h) or 7 days (168 h) at 37° C. and relevant CO2.
(§6) At the end of the compound incubation period 20 μl AlamarBlue reagent was added per well and the 96-well plates were incubated further up to seven hours. Absorption was determined at 540 nm by using Tecan Reader Connect and Magelan 7.
(§7) 0% effect=cells treated with DMSO; −100% effect=no cells

MO59J (DNA-PK deficient) = assay: AlamarBlue viability assay; format: cell-based, human; conditions: compound incubation for 168 h
Experimental: as §3, §4, §5, §6, §7

NCI-H460 = assay: AlamarBlue viability assay; format: cell-based, human
Experimental: as §3, §4, §5, §6, §7

[7] = IR 10 Gy (5 x 2 Gy) + Compound 1 150 mg/kg po
[8] = IR 10 Gy (5 x 2 Gy) + Compound 1 150 mg/kg po 10 min prior to each fraction

Structure (SMILES): COc1cc([C@@H]2c3cc4c(cc3[C@@H](O[C@@H]3O[C@@H]5CO[C@@H](C)O[C@H]5[C@H](O)[C@H]3O)[C@H]3COC(=O)[C@H]23)OCO4)cc(OC)c1O [Etoposide]
- GI50 (HELA): 2360 nM
- GI50 (lung cancer cell lines): 320 nM
- GI50 (SF295): 1160 nM
- GI50 (COLO678): > 10000 nM
- GI50 (SKNSH): 265 nM
- GI50 (SNB75): 3790 nM
- GI50 (JIMT1): > 10000 nM
- GI50 (SF268): 1970 nM
- GI50 (SKNAS): 2150 nM
- GI50 [1]: 1000 nM

Structure (SMILES): COc1ccc([C@@H](O)c2cc(-c3ncnc4cc(N5CCOCC5)ccc34)c(F)cc2Cl)nn1 [Compound 1, (S)-[2-chloro-4-fluoro-5-(7-morpholin-4-yl-quinazolin-4-yl)-phenyl]-(6-methoxy-pyridazin-3-yl)-methanol]
- Enhancement Ratio [combi/IR only] [2, 7]: 2
- median time to TV400% Combi [2, 8]: 132 days
- Enhancement Ratio [combi/IR only] [3, 7]: 2.6
- median time to TV400% Combi [3, 8]: 45 days
- Enhancement Ratio [combi/IR only] [4, 7]: 1.5
- median time to TV400% Combi [4, 8]: 42 days
- Enhancement Ratio [combi/IR only] [5, 7]: 2
- median time to TV400% Combi [5, 8]: 73.5 days
- Enhancement Ratio [combi/IR only] [6, 7]: 1.5
- median time to TV400% Combi [6, 8]: 46 days
- inhibition of viability, combination with etoposide (FaDu): enhanced inhibition of viability
- combination effect with Etoposide on viability (MO59J (DNA-PK deficient)): no such combination effect
- combination effect with cisplatin on viability (NCI-H460): No significant combination effect
- inhibition of viability, combination with etoposide (NCI-H460): enhanced inhibition of viability
